Laboratory results published in ChEMBL document CHEMBL4837263, “N-Aromatic-Substituted Indazole Derivatives as Brain-Penetrant and Orally Bioavailable JNK3 Inhibitors” (ACS Med Chem Lett, 2021).
Calls of active or inactive are those of the source. The rule behind the calls is not given here.

Legend:
[1] = biological target: T1, Mitogen-activated protein kinase 10 (Homo sapiens, UniProt P53779); assay: Inhibition of JNK3alpha1 (unknown origin) using biotinylated FL-ATF-2 as substrate measured after 22 mins by homogeneous time-resolved fluorescence analysis
[2] = biological target: T2, Mitogen-activated protein kinase 8 (Homo sapiens, UniProt P45983); assay: Inhibition of JNK1 (unknown origin) using biotinylated FL-ATF-2 as substrate measured after 22 mins by homogeneous time-resolved fluorescence analysis
[3] = biological target: T3, Mitogen-activated protein kinase 9 (Homo sapiens, UniProt P45984); assay: Inhibition of JNK2 (unknown origin) using biotinylated FL-ATF-2 as substrate measured after 22 mins by homogeneous time-resolved fluorescence analysis
Target sequence in this assay (P45984 whole entry): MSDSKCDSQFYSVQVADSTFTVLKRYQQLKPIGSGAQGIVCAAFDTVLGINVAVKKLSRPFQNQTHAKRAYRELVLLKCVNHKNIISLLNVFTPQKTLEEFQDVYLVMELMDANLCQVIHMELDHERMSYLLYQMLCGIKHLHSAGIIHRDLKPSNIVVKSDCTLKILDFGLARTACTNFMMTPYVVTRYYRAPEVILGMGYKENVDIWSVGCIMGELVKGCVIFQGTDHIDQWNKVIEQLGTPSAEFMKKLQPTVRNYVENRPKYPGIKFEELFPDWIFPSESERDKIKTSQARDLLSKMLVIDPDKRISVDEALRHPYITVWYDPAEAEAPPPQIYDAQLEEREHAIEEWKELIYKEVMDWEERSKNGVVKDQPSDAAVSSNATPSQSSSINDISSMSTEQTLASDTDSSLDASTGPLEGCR

[4] = biological target: T4, Mitogen-activated protein kinase 14 (Homo sapiens, UniProt Q16539); assay: Inhibition of p38 alpha (unknown origin) using biotinylated FL-ATF-2 as substrate measured after 22 mins by homogeneous time-resolved fluorescence analysis
[5] = Selectivity index, ratio of IC50 for JNK1 (unknown origin) to IC50 for JNK3 (unknown origin)
[6] = Selectivity index, ratio of IC50 for JNK2 (unknown origin) to IC50 for JNK3 (unknown origin)
[7] = Selectivity index, ratio of IC50 for p38 alpha (unknown origin) to IC50 for JNK3 (unknown origin)
[8] = biological target: Voltage-gated inwardly rectifying potassium channel KCNH2 (Homo sapiens, UniProt Q12809); assay: Inhibition of human ERG expressed in CHO cells at -80 mV holding potential by automated Qpatch electrophysiological method
[9] = biological target: T5, CYP1A2 (Homo sapiens, UniProt P05177); assay: Inhibition of CYP1A2 (unknown origin) assessed as phenaceten demethylation to acetaminophen at 10 uM by cocktail inhibition assay relative to control; conditions: probe phenacetin (demethylation to acetaminophen)
T5 sequence (P05177 whole entry): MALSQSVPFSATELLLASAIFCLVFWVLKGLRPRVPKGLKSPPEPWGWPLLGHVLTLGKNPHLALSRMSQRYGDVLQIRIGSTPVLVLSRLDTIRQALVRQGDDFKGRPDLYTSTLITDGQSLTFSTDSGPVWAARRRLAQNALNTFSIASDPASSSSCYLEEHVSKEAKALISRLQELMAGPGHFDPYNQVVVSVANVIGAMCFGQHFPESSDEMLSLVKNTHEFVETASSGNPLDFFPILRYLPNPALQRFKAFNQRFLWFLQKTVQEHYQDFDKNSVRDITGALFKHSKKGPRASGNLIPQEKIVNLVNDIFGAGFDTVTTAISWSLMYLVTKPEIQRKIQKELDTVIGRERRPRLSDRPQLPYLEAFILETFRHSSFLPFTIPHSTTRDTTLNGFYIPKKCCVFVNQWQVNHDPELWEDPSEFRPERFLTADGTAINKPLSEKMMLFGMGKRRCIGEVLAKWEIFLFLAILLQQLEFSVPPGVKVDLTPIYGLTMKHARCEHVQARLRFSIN

[10] = biological target: CYP2C9 (Homo sapiens, UniProt P11712); assay: Inhibition of CYP2C9 (unknown origin) assessed as tolbutamide hydroxylation to hydrocytolbutamide at 10 uM by cocktail inhibition assay relative to control; conditions: probe tolbutamide (hydroxylation to hydroxytolbutamide)
[11] = biological target: CYP2D6 (Homo sapiens, UniProt P10635); assay: Inhibition of CYP2D6 (unknown origin) assessed as bufuralol hydroxylation to 4'-hydroxy bufuralol at 10 uM by cocktail inhibition assay relative to control; conditions: probe bufuralol (hydroxylation to 4'-hydroxy bufuralol)
[12] = biological target: CYP3A4 (Homo sapiens, UniProt P08684); assay: Inhibition of CYP3A4 (unknown origin) assessed as midazolam hydroxylation to 1'-hydroxy midazolam at 10 uM by cocktail inhibition assay relative to control; conditions: probe midazolam (hydroxylation to 1'-hydroxy midazolam)
[13] = Stability in human liver microsome assessed as half life; format: ADME; conditions: liver microsomes
[14] = Stability in mouse liver microsome assessed as half life; format: ADME; conditions: liver microsomes
[15] = test system: SH-SY5Y; assay: Cytotoxicity against human SH-SY5Y cells assessed as reduction in cell viability at 10 uM measured after 48 hrs by MTT assay; format: cell-based
[16] = biological target: Mitogen-activated protein kinase 10 (Rattus norvegicus) (UniProt P49187); assay: Inhibition of JNK3 in rat primary neuron assessed as reduction in phosphorylation of APP at T668 residue at < 1 nM incubated for 30 mins by Western blot analysis; conditions: dose nM <1, time 30.0 min
[17] = biological target: Cytochrome P450 2C9 (Homo sapiens, UniProt P11712); assay: Inhibition of CYP2C9 (unknown origin) by titration method
[18] = biological target: T1, Mitogen-activated protein kinase 10; assay: Inhibition of human JNK3 at 1 uM using ATF2 as substrate by [gamma-33P]-ATP assay relative to control
[19] = biological target: T3, Mitogen-activated protein kinase 9; assay: Inhibition of human JNK2 at 1 uM using ATF2 as substrate by [gamma-33P]-ATP assay relative to control
[20] = biological target: T6, Casein kinase I isoform epsilon (Homo sapiens, UniProt P49674); assay: Inhibition of human CK1E at 1 uM using KRRRAL[pS]VASLPGL as substrate by [gamma-33P]-ATP assay relative to control
[21] = biological target: T7, Epithelial discoidin domain-containing receptor 1 (Homo sapiens, UniProt Q08345); assay: Inhibition of human DDR1 at 1 uM using KKSRGDYMTMQIG as substrate by [gamma-33P]-ATP assay relative to control
[22] = biological target: T4, Mitogen-activated protein kinase 14; assay: Inhibition of human p38alpha at 1 uM using MBP as substrate by [gamma-33P]-ATP assay relative to control
[23] = biological target: Protein-tyrosine kinase 6 (Homo sapiens) (UniProt Q13882); assay: Inhibition of human BRK at 1 uM using poly[Glu:Tyr](4:1) as substrate by [gamma-33P]-ATP assay relative to control
[24] = biological target: T2, Mitogen-activated protein kinase 8; assay: Inhibition of human JNK1 using ATF2 as substrate by [gamma-33P]-ATP assay; conditions: dose 1.0 µM
[25] = biological target: T6, Casein kinase I isoform epsilon; assay: Inhibition of human CK1E using KRRRAL[pS]VASLPGL as substrate by [gamma-33P]-ATP assay
[26] = biological target: T7, Epithelial discoidin domain-containing receptor 1; assay: Inhibition of human DDR1 using KKSRGDYMTMQIG as substrate by [gamma-33P]-ATP assay
[27] = Drug concentration in C57BL/6J mouse plasma at 30 mg/kg, po measured after 2 hrs by LC-MS/MS analysis; format: ADME, organism-based
[28] = Drug concentration in C57BL/6J mouse brain at 30 mg/kg, po measured after 2 hrs by LC-MS/MS analysis; format: ADME, organism-based; conditions: read-out: Ct

T1 sequence (P53779 whole entry): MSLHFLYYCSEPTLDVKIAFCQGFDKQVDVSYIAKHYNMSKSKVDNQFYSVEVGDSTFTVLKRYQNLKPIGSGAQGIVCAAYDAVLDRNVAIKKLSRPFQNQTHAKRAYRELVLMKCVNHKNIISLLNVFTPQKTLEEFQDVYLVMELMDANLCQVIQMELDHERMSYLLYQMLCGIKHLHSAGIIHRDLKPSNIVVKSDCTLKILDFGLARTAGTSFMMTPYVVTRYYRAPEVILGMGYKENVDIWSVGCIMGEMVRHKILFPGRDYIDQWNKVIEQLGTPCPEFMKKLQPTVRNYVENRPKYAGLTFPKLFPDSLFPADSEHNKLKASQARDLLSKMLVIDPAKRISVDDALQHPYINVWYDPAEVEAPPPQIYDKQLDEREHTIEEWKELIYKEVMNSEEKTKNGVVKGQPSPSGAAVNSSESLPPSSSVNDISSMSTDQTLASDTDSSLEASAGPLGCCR
T4 sequence (Q16539 whole entry): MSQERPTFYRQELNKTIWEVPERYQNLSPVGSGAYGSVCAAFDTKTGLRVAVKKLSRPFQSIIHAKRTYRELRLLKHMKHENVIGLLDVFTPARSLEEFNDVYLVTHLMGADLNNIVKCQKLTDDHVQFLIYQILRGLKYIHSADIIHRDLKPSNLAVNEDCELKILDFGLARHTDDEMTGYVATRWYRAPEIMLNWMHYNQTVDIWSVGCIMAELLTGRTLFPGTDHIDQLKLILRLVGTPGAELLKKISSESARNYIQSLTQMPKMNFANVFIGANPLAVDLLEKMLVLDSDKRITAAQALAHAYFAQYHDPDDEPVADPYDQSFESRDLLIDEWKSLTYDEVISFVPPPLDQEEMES
Voltage-gated inwardly rectifying potassium channel KCNH2, sequence (Q12809 whole entry): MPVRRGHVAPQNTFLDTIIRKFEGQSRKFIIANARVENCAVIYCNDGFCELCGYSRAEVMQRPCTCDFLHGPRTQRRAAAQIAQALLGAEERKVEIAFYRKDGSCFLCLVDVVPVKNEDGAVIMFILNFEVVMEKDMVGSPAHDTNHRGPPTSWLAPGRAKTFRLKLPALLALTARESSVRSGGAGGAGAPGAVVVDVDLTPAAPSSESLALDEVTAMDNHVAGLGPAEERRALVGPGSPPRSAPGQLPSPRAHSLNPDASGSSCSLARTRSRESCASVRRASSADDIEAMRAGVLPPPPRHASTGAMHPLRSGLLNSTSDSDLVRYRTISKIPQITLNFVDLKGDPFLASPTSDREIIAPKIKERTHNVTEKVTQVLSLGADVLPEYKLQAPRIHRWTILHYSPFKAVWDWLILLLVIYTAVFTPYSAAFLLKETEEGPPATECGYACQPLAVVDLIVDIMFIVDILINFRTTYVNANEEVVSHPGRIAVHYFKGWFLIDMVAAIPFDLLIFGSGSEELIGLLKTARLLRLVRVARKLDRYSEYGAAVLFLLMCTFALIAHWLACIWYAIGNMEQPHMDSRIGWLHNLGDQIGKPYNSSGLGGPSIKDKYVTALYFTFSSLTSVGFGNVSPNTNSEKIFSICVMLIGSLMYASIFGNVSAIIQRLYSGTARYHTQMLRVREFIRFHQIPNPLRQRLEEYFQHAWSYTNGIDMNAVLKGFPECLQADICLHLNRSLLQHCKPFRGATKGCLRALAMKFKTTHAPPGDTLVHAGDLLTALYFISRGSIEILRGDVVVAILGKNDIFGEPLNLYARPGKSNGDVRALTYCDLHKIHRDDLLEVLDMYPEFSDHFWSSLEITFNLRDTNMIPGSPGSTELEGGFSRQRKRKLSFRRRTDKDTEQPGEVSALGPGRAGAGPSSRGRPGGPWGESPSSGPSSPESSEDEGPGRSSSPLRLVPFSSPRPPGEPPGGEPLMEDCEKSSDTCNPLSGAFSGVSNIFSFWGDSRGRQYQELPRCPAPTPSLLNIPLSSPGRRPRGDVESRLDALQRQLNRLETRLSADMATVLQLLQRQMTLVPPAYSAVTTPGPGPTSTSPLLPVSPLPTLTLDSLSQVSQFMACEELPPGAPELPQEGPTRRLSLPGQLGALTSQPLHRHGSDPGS
CYP2C9, sequence (P11712 whole entry): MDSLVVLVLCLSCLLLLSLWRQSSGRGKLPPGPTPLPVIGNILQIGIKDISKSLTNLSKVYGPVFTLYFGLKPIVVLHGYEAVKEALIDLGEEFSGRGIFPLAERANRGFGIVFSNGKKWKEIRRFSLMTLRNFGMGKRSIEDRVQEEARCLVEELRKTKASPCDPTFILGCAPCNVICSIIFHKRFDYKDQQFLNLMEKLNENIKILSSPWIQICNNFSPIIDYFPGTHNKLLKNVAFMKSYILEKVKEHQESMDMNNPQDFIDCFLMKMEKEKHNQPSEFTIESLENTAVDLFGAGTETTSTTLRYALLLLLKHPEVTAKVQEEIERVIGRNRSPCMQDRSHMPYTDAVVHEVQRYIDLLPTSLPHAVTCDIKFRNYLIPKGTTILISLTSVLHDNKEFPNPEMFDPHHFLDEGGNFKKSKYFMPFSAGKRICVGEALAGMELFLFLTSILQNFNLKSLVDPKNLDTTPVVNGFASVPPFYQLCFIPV
CYP3A4, sequence (P08684 whole entry): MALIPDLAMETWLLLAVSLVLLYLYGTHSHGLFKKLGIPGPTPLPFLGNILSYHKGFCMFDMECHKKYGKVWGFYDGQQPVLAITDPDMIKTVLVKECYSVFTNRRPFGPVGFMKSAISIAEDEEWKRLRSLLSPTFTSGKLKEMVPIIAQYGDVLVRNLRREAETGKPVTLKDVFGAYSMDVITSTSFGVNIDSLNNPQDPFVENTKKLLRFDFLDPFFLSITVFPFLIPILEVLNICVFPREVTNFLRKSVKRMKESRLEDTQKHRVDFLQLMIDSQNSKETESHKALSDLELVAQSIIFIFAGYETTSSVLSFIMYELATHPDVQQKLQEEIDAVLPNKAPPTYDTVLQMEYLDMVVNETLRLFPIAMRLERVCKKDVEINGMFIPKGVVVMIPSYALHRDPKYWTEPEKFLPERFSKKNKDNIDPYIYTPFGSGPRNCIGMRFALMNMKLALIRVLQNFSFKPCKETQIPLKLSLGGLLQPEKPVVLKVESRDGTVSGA
T2 sequence (P45983 whole entry): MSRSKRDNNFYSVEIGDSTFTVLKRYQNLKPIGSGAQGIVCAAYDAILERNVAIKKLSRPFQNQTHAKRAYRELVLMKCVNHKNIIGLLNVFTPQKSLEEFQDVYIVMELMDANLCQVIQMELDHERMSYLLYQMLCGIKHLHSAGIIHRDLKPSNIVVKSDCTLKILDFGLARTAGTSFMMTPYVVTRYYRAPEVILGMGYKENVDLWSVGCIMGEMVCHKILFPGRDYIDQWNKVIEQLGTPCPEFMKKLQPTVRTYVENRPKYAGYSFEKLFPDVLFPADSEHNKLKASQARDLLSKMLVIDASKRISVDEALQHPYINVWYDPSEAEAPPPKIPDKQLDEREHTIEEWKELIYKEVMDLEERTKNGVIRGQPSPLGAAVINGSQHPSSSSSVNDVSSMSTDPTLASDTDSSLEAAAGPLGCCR
CYP2D6, sequence (P10635 whole entry): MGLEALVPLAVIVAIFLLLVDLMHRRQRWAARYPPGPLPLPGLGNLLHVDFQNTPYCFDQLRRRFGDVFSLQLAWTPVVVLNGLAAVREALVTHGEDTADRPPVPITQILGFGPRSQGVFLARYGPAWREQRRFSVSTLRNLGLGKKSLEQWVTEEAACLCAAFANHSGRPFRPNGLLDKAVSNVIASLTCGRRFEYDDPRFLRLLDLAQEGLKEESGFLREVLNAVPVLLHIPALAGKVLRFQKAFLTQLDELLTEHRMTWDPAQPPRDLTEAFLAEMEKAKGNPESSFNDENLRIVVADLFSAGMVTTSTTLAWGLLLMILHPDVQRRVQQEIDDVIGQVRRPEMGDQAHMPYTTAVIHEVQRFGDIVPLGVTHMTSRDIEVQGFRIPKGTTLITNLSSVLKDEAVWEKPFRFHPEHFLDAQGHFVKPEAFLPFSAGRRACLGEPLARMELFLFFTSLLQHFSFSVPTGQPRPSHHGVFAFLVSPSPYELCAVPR
Cytochrome P450 2C9, sequence (P11712 whole entry): as the sequence (P11712 whole entry) above
Mitogen-activated protein kinase 10 (Rattus norvegicus), sequence (P49187 whole entry): as the sequence (P53779 whole entry) above, with Q27H, Y32S, I33V, A34V counted along it

Row | IC50 [1] [nM] | IC50 [2] [nM] | IC50 [3] [nM] | IC50 [4] [nM] | Ratio IC50 [5] | Ratio IC50 [6] | Ratio IC50 [7] | inhibition at 10 µM [9] [%] | inhibition at 10 µM [10] [%] | inhibition at 10 µM [11] [%] | inhibition at 10 µM [12] [%] | half-life [13] [min] | half-life [14] [min] | Structure (SMILES) | IC50 [8] [nM] | Cell viability [15] [%] | other results
1 | 5 | 619 | 93 | 100 | 124 | 18 | 20 | 21 | 39 | -4 | -13 | 37 | 42 | CNC(=O)c1cc(-n2ncc3cc(Nc4ccccc4Cl)c(F)cc32)cs1 | > 30000 | 83 | inhibition [16]: Active
2 | 14 | 1050 | 1330 | 400 | 75 | 95 | 29 | 4 | 41 | -16 | -56 | 92 | 20 | O=C(NC1COC1)c1cc(-n2ncc3cc(Nc4ccccc4Cl)c(F)cc32)cs1 | – | 98 | –
3 | 2 | 260 | 74 | 57 | 130 | 37 | 28 | – | – | – | – | – | – | CNC(=O)c1cc(-n2ncc3cc(Nc4c(F)cccc4Cl)ncc32)cs1 | – | – | –
4 | – | – | 74 | – | – | – | – | – | – | – | – | 92 | 77 | Cc1nc2c(cnn2-c2csc(C(=O)NC3COC3)c2)cc1Nc1c(F)cccc1Cl | – | 116 | inhibition [18]: 89%; inhibition [19]: 81%; inhibition [20]: 78%; inhibition [21]: 73%; inhibition [22]: 75%; inhibition [23]: 55%; inhibition [24]: 30%; IC50 [25]: 100 nM; IC50 [26]: 247 nM; concentration at 2 h [27]: 5.9 µM; concentration at 2 h [28]: 3.3 µM; inhibition [16]: Active
5 | 12 | 872 | 140 | 380 | 73 | 11 | 31 | 43 | 61 | 19 | -2 | 26 | 17 | CNC(=O)c1cc(-n2ncc3cc(Nc4c(F)cccc4Cl)c(C)nc32)cs1 | > 30000 | 109 | –
6 | 1 | 263 | – | 226 | – | – | – | – | – | – | – | – | – | [2H]C([2H])([2H])N1CC[C@H](NC(=O)c2cc(-n3ncc4cc(Nc5ccccc5Cl)ccc43)cs2)C1 | < 1000 | – | –

The remaining lines, values behind:

Row | Structure (SMILES) | IC50 [1] [nM] | IC50 [2] [nM] | IC50 [3] [nM] | IC50 [4] [nM] | Ratio IC50 [5] | Ratio IC50 [6] | Ratio IC50 [7] | inhibition at 10 µM [9] [%] | inhibition at 10 µM [10] [%] | inhibition at 10 µM [11] [%] | inhibition at 10 µM [12] [%] | half-life [13] [min] | half-life [14] [min] | IC50 [8] [nM] | Cell viability [15] [%] | other results
7 | CNC(=O)c1cc(-n2ncc3cc(Nc4c(F)cccc4Cl)c(F)cc32)cs1 | 2 | 258 | 29 | 24 | 129 | 15 | 12 | – | – | – | – | – | – | – | – | –
8 | O=C(NC1COC1)c1cc(-n2ncc3cc(Nc4ccccc4Cl)cnc32)cs1 | 6 | 940 | 256 | 260 | 157 | 43 | 43 | 19 | 76 | 15 | 14 | 21 | 9 | – | 103 | IC50 [17]: 4000 nM
9 | CNC(=O)c1cc(-n2ncc3cc(Nc4ccccc4Cl)cnc32)cs1 | 24 | 4730 | 414 | 481 | 197 | 17 | 20 | 30 | 66 | 30 | 57 | 15 | 14 | > 100000 | 119 | IC50 [17]: 4000 nM
10 | [2H]C([2H])([2H])N1CC[C@H](NC(=O)c2cc(-n3ncc4cc(Nc5ccccc5Cl)c(F)cc43)cs2)C1 | 5 | 285 | – | 300 | – | – | – | – | – | – | – | – | – | < 1000 | – | –
11 | O=C(Nc1cnn(-c2csc(C(=O)NC3COC3)c2)c1)Nc1ccccc1Cl | – | – | – | > 20000 | – | – | – | – | – | – | – | – | – | > 30000 | 104 | –
